Assay results taken from ChEMBL document CHEMBL5108051, “Improving the Antimicrobial Performance of Amphiphilic Cationic Antimicrobial Peptides Using Glutamic Acid Full-Scan and Positive Charge Compensation Strategies” (J Med Chem, 2022).
Converted amounts (≈) assume the structure as drawn. The source made the active and inactive calls. The rule behind the calls is not given here. Square brackets hold non-standard residues; d marks the D form. Peptide text beside a SMILES is read from it. ξ: configuration not given here. ξK = NCCCCC(N)C(=O)O

Columns and labels:
Staphylococcus aureus [1] = assay: Antibacterial activity against Staphylococcus aureus ATCC 25923 assessed as fold increase in MIC measured after 15 passages by resistance development assay; assay type: functional
Escherichia coli [2] = assay: Antibacterial activity against Escherichia coli ATCC 25922 assessed as fold increase in MIC measured after 15 passages by resistance development assay relative to control; assay type: functional
Escherichia coli [3] = assay: Antibacterial activity against Escherichia coli ATCC 25922 assessed as growth inhibition measured after 18 to 24 hrs by CLSI based broth microdilution method; assay type: functional; details: time 18-24 hrs
Klebsiella pneumoniae = assay: Antibacterial activity against Klebsiella pneumoniae ATCC 700603 assessed as growth inhibition measured after 18 to 24 hrs by CLSI based broth microdilution method; assay type: functional; details: time 18-24 hrs
Pseudomonas aeruginosa = assay: Antibacterial activity against Pseudomonas aeruginosa ATCC 27853 assessed as growth inhibition measured after 18 to 24 hrs by CLSI based broth microdilution method; assay type: functional; details: time 18-24 hrs
Staphylococcus aureus [4] = assay: Antibacterial activity against Staphylococcus aureus ATCC 25923 assessed as growth inhibition measured after 18 to 24 hrs by CLSI based broth microdilution method; assay type: functional; details: time 18-24 hrs
Bacillus subtilis = assay: Antibacterial activity against Bacillus subtilis ATCC 23857 assessed as growth inhibition measured after 18 to 24 hrs by CLSI based broth microdilution method; assay type: functional; details: time 18-24 hrs
Erythrocyte = assay: Hemolytic activity against mouse RBC measured after 1 hrs; assay type: toxicity, cell-based
[5] = Cytotoxicity against human Glomerular mesenchymal cell assessed as reduction in cell viability at 0 to 128 uM incubated for 1 hr by Resazurin cell viability kit; assay type: toxicity, cell-based; details: glomerular mesenchymal cells, dose 0-128 µM
Staphylococcus aureus [6] = assay: Antimicrobial activity against Staphylococcus aureus ATCC 25923 assessed as fold increase in MIC in presence of NaCl; assay type: functional
Staphylococcus aureus [7] = assay: Antimicrobial activity against Staphylococcus aureus ATCC 25923 assessed as fold increase in MIC in presence of KCl; assay type: functional
Staphylococcus aureus [8] = assay: Antimicrobial activity against Staphylococcus aureus ATCC 25923 assessed as fold increase in MIC in presence of MgCl2; assay type: functional
Staphylococcus aureus [9] = assay: Antimicrobial activity against Staphylococcus aureus ATCC 25923 assessed as increase fold in increase MIC in presence of FeCl3; assay type: functional
Escherichia coli [10] = assay: Antimicrobial activity against Escherichia coli ATCC 25922 in presence of NaCl; assay type: functional, organism-based
Escherichia coli [11] = assay: Antimicrobial activity against Escherichia coli ATCC 25922 in presence of KCl; assay type: functional, organism-based
Escherichia coli [12] = assay: Antimicrobial activity against Escherichia coli ATCC 25922 in presence of MgCl2; assay type: functional, organism-based
[13] = Stability of compound in serum measured after 1 to 6 hrs by RP-HPLC analysis; assay type: ADME, cell-free; details: time 1-6 hrs
Staphylococcus aureus [14] = assay: Antimicrobial activity against Staphylococcus aureus ATCC 25923 in presence of NaCl; assay type: functional, organism-based
Staphylococcus aureus [15] = assay: Antimicrobial activity against Staphylococcus aureus ATCC 25923 in presence of KCl; assay type: functional, organism-based
Staphylococcus aureus [16] = assay: Antimicrobial activity against Staphylococcus aureus ATCC 25923 in presence of MgCl2; assay type: functional, organism-based
Staphylococcus aureus [17] = assay: Antimicrobial activity against Staphylococcus aureus ATCC 25923 in presence of FeCl3; assay type: functional, organism-based
Cell membrane [18] = assay: Induction of cell membrane disruption in Escherichia coli ATCC 25922 assessed as increase in PI uptake measured after 30 to 120 mins by propidium iodide staining based FACS flow cytometry analysis (reference value: 6.0 %); assay type: subcellular; details: time 30-120 min
Cell membrane [19] = assay: Induction of cell membrane disruption in Staphylococcus aureus ATCC 25923 assessed as increase in PI uptake measured after 30 to 120 mins by propidium iodide staining based FACS flow cytometry analysis (reference value: 15%); assay type: subcellular; details: time 30-120 min

Row | Molecule | MIC (Escherichia coli [3]) | MIC (Klebsiella pneumoniae) | MIC (Pseudomonas aeruginosa) | MIC (Staphylococcus aureus [4]) | MIC (Bacillus subtilis) | MHC10 (Erythrocyte) | other results
1 | GENTAMICIN | – | – | – | – | – | – | fold change (FC) (Staphylococcus aureus [1]): 512; fold change (FC) (Escherichia coli [2]): 128
2 | CC(C)C[C@H](NC(=O)[C@H](CC(C)C)NC(=O)[C@H](CCCCN)NC(=O)[C@H](CCC(=O)O)NC(=O)[C@H](CC(C)C)NC(=O)[C@H](CC(C)C)NC(=O)[C@H](CCCCN)NC(=O)[C@H](C)NC(=O)[C@@H](NC(=O)[C@H](CCCCN)NC(=O)[C@@H]1CCCN1C(=O)[C@H](CC(C)C)NC(=O)[C@@H](N)Cc1ccccc1)C(C)C)C(N)=O (H-FLPKVAKLLEKLL-NH2) | 8 µM (≈ 12.1 µg/mL) | 32 µM (≈ 48.4 µg/mL) | 16 µM (≈ 24.2 µg/mL) | 8 µM (≈ 12.1 µg/mL) | 8 µM (≈ 12.1 µg/mL) | > 256 µM | CC50 at 1 h [5]: > 128 µM; fold change (FC) (Staphylococcus aureus [6]): 2; fold change (FC) (Staphylococcus aureus [7]): 2; fold change (FC) (Staphylococcus aureus [8]): 2; fold change (FC) (Staphylococcus aureus [9]): 2; Activity (Escherichia coli [10]): Active; Activity (Escherichia coli [11]): Active; Activity (Escherichia coli [12]): Active
3 | CC(C)C[C@H](NC(=O)[C@H](CC(C)C)NC(=O)C(CCCCN)NC(=O)[C@H](CCC(=O)O)NC(=O)[C@H](CC(C)C)NC(=O)[C@H](CC(C)C)NC(=O)[C@H](CCCCN)NC(=O)[C@H](CCCCN)NC(=O)[C@@H](NC(=O)[C@H](CCCCN)NC(=O)[C@@H]1CCCN1C(=O)[C@H](CC(C)C)NC(=O)[C@@H](N)Cc1ccccc1)C(C)C)C(N)=O (some centres undefined) (H-FLPKVKKLLE[ξK]LL-NH2) | 8 µM (≈ 12.5 µg/mL) | 16 µM (≈ 25.1 µg/mL) | 16 µM (≈ 25.1 µg/mL) | 32 µM (≈ 50.2 µg/mL) | 32 µM (≈ 50.2 µg/mL) | > 256 µM | –
4 | CC[C@H](C)[C@H](NC(=O)[C@@H]1CCCN1C(=O)[C@H](CC(C)C)NC(=O)[C@@H](N)CCC(=O)O)C(=O)N[C@H](C(=O)N[C@@H](C)C(=O)N[C@@H](CCCCN)C(=O)N[C@@H](CC(C)C)C(=O)N[C@@H](CC(C)C)C(=O)N[C@@H](CO)C(=O)NCC(=O)N[C@@H](CC(C)C)C(=O)N[C@@H](CC(C)C)C(N)=O)C(C)C (H-ELPIVAKLLSGLL-NH2) | > 128 µM | > 128 µM | > 128 µM | > 128 µM | > 128 µM | > 256 µM | –
5 | CC(C)C[C@H](NC(=O)[C@H](CC(C)C)NC(=O)[C@H](CCC(=O)O)NC(=O)[C@H](CO)NC(=O)[C@H](CC(C)C)NC(=O)[C@H](CC(C)C)NC(=O)[C@H](CCCCN)NC(=O)[C@H](CCCCN)NC(=O)[C@@H](NC(=O)[C@H](CCCCN)NC(=O)[C@@H]1CCCN1C(=O)[C@H](CC(C)C)NC(=O)[C@@H](N)Cc1ccccc1)C(C)C)C(N)=O (H-FLPKVKKLLSELL-NH2) | 32 µM (≈ 48.9 µg/mL) | 64 µM (≈ 97.7 µg/mL) | 32 µM (≈ 48.9 µg/mL) | 64 µM (≈ 97.7 µg/mL) | 16 µM (≈ 24.4 µg/mL) | > 256 µM | –
6 | CC(C)C[C@H](NC(=O)[C@H](CC(C)C)NC(=O)CNC(=O)[C@H](CO)NC(=O)[C@H](CC(C)C)NC(=O)[C@H](CC(C)C)NC(=O)[C@H](CCCCN)NC(=O)[C@H](C)NC(=O)[C@@H](NC(=O)[C@H](CCC(=O)O)NC(=O)[C@@H]1CCCN1C(=O)[C@H](CC(C)C)NC(=O)[C@@H](N)Cc1ccccc1)C(C)C)C(N)=O (H-FLPEVAKLLSGLL-NH2) | 64 µM (≈ 89.5 µg/mL) | > 128 µM | > 128 µM | > 128 µM | > 128 µM | > 256 µM | –
7 | CO[C@H]1/C=C/O[C@@]2(C)Oc3c(C)c(O)c4c(O)c(c(/C=N/N5CCN(C)CC5)c(O)c4c3C2=O)NC(=O)/C(C)=C\C=C\[C@H](C)[C@H](O)[C@@H](C)[C@@H](O)[C@@H](C)[C@H](OC(C)=O)[C@@H]1C [RIFAMPIN] | 4 µM (≈ 3.29 µg/mL) | 32 µM (≈ 26.3 µg/mL) | 32 µM (≈ 26.3 µg/mL) | < 1 µM | < 1 µM | – | Stability [13]: Stable; Activity (Staphylococcus aureus [14]): Active; Activity (Staphylococcus aureus [15]): Active; Activity (Staphylococcus aureus [16]): Active; Activity (Staphylococcus aureus [17]): Active; Activity (Cell membrane [18]): 17.4%; Activity (Cell membrane [19]): 3.45%; fold change (FC) (Staphylococcus aureus [1]): 4096; fold change (FC) (Escherichia coli [2]): 16
